The results in this text go back to patent publication US12465567B2, “Enhanced antibiotic and drug delivery for aqueous topical applications for human and veterinary uses” (priority 2018, dated 2025).

Series [1] is described as follows: in-vitro skin penetration, vertical diffusion cell.
Procedure: Skin penetration studies were carried out using porcine full-thickness skin (Procured from Department of Animal and Range Sciences, SDSU) and excised human skin (NDRI, Philadelphia, PA). The skin was sandwiched between the two compartments of a vertical diffusion cell and equilibrated for 3 hrs. The receptor compartment was filled with phosphate buffer (pH 7.4) and was maintained at 37° C. with stirring. […] Samples (200μ) were removed from the receptor compartment at predetermined intervals and replaced with an equal volume of fresh buffer. To study the effect of the formulation forming a skin depot, in a separate experiment the skin was treated for 6 hrs and the treatment was removed. The donor compartment was replaced with plain buffer (pH 7.4) and the study was continued for 48 hrs. At the end of the study the skin was taken out and stratum corneum (SC) was removed using tape stripping and the tape strips were soaked in 50% ethanol overnight to extract the drug. The remaining skin (epidermis and dermis) was homogenized using 1M sodium hydroxide solution. Scintillation cocktail was added to all the samples and the radioactive counts were measured in a scintillation counter (Beckman).
Series [2] relates to reconstructed human skin (EPI-200; Epiderm). Briefly: in vitro skin irritation, MTT viability assay. Type of series: cell-based. The protocol: In vitro skin irritation studies were carried out using reconstructed human skin (EPI-200; Epiderm; Mattek Corporation, Ashland, MA). […] Briefly, the MTT assay was performed by transferring the tissues to 24-well plates containing MTT medium (1 mg/ml). After 3 hours, formazan salt formed by cellular mitochondria was extracted with 2 ml/tissue of isopropanol and the optical density will be measured using a plate reader at 570 nm. Relative cell viability will be calculated as % of the mean of the negative control. The cytotoxicity was estimated by the time to kill 50% of the cells (ET-50).
In general terms: Formazan colour is commonly taken as a measure of viable cells.

As for `CN(C)[C@@H]1C(O)=C(C(N)=O)C(=O)[C@@]2(O)C(O)=C3C(=O)c4c(O)cccc4[C@@](C)(O)[C@H]3C[C@@H]12` [tetracycline], in series [1], the “amount of tetracycline in the human skin” value is 20-60 μg/sq·cm.

Regarding Triton X-100 [Positive control], in series [2], the “ET 50 Value” is 5.28 h.
